Measurements: patent US11674120B2, “Methods, kits, and compositions for enhancing cellular therapy” (University of Florida Research Foundation, Incorporated, priority 2016, dated 2023)

Tested on: lymph nodes and spleens
Experiment: In vivo migration of PKH+ DCs to lymph nodes and spleen (immunofluorescence)
Set-up: species or system C57BL/6 mice
Settings: intradermal injection, 48 hours
Method: Dendritic cells were cultured and loaded with sarcosine as described in Example 1. DCs were also loaded with PKH cell membrane dye. […] After 48 hours, the lymph nodes and spleens were collected from the mice and immunofluorescence was performed to visualize PKH+ cells (which are the injected DCs) and B220+ cells (which are B cells). […] There was vastly more migration to the lymph nodes/spleen.

CNCC(=O)O [sarcosine, N-methylglycine]
Increase of migration to the lymph nodes and the spleen over controls, on visual inspection: more than two times, three times, four times more, five times and perhaps even more than ten-fold more than controls
